From patent US20080096943A1, “Organic Compunds” (priority 2004, published 2008)

Target: T1, human CCR-3 (Homo sapiens, UniProt P51677)
T1 construct: expressed in transfected cells; membranes used
T1 sequence (P51677 1-355): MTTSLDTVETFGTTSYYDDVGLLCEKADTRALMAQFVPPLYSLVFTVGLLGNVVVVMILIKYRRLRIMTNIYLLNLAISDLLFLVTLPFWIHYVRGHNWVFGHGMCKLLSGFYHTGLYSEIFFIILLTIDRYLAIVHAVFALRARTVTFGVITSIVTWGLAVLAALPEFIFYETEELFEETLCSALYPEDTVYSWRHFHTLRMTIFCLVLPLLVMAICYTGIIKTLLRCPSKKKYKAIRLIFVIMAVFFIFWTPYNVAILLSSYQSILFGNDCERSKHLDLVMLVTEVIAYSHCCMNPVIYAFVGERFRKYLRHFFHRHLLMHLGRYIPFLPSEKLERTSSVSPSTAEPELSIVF
Test: [125I]-human eotaxin binding to CCR-3, SPA assay
Settings: inhibition of [125I]-human eotaxin binding; membranes of RBL-2H3 cells stably expressing CCR3; 4 hours at room temperature
From the text: Recombinant cells expressing human CCR-3 are captured by wheatgerm agglutinin (WGA) polyvinyltoluidene (PVT) SPA beads (available from Amersham), through a specific interaction between the WGA and carbohydrate residues of glycoproteins on the surface of the cells. [^125I]-human eotaxin (available from Amersham) binds specifically to CCR-3 receptors bringing the [^125I]-human eotaxin in close proximity to the SPA beads. Emitted â-particles from the [^125I]-human eotaxin excite, by its proximity, the fluorophore in the beads and produce light.
Preparation of Assay Buffer: 5.96 g HEPES and 7.0 g sodium chloride are dissolved in distilled water and 1 M aqueous CaCl2 (1 ml) and 1M aqueous MgCl2 (5 ml) are added. The pH is adjusted to 7.6 with NaOH and the solution made to a final volume of 1 l using distilled water. 5 g bovine serum albumin and 0.1 g sodium azide are then dissolved in the solution and the resulting buffer stored at 4° C. […]
Preparation of membranes: Confluent rat basophil leukaemia (RBL-2H3) cells stably expressing CCR3 are removed from tissue culture flasks using enzyme-free cell dissociation buffer and resuspended in phosphate-buffered saline. […] The resulting scintillations are counted using a Canberra Packard TOPCOUNT™ scintillator counter, each well being counted for 1 minute. […]

IC50 [nM]	Compound
1540	Cc1noc(C)c1NC(=O)NCCCCN(C)Cc1ccc(F)cc1 [Example 1, 1-(3,5-Dimethyl-isoxazole-4-yl)-3-[4-[(4-fluorobenzyl)methylamino]-butyl]-urea]
49	CN(CCCCNC(=O)Nc1ccc(F)c(F)c1)Cc1ccc(F)cc1 [Example 2, 1-(3,4-difluorophenyl)-3-{4-[(4-fluorobenzyl)methylamino]-butyl}-urea]
